In the supplement of paper PMC11061612:

Legend:
AZD5991 = compound: Cc1c2c(nn1C)CSCc1cc(n(C)n1)CSc1cc(c3ccccc3c1)OCCCc1c(C(=O)O)n(C)c3c-2c(Cl)ccc13 [AZD5991]; details: max 1 µM
Summary of the method: (§1)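 Cancer cell lines were plated in 1536-well plates in 7.5 μl of DMEM/F12 or RPMI with 10% FBS and kept 24 hours at 37°C and 5% CO2 before 72 hours of dosing, with final DMSO typically 0.2%. CellTiter-Glo 2.0 luminescence measured viability, scaled between blank-well and DMSO-well means. Dose responses were fitted to a two-parameter logistic curve with a non-linear mixed effects model. This fit gives the single-agent IC50.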

AZD1390 = compound: CC(C)n1c(=O)n(C)c2cnc3cc(F)c(-c4ccc(OCCCN5CCCCC5)nc4)cc3c21 [AZD1390]; details: max 0.3 µM
Summary of the method: as §1

Gemcitabine = compound: Nc1ccn([C@@H]2O[C@H](CO)[C@@H](O)C2(F)F)c(=O)n1 [Gemcitabine]; details: max 0.3 µM
Summary of the method: as §1

AZD5363 = compound: C1CN(CCC1(C(=O)N[C@@H](CCO)C2=CC=C(C=C2)Cl)N)C3=NC=NC4=C3C=CN4 [AZD5363]; details: max 10 µM
Summary of the method: as §1

SN-38 = compound: CCc1c2c(nc3ccc(O)cc13)-c1cc3c(c(=O)n1C2)COC(=O)[C@]3(O)CC [SN-38]; details: max 0.3 µM
Summary of the method: as §1

AZD8186 = compound: C[C@@H](Nc1cc(F)cc(F)c1)c1cc(C(=O)N(C)C)cc2c(=O)cc(N3CCOCC3)oc12 [AZD8186]; details: max 10 µM
Summary of the method: as §1

5-Fluorouracil = compound: O=c1[nH]cc(F)c(=O)[nH]1 [5-Fluorouracil]; details: max 20 µM
Summary of the method: as §1

Alisertib = compound: COc1cc(Nc2ncc3c(n2)-c2ccc(Cl)cc2C(c2c(F)cccc2OC)=NC3)ccc1C(=O)O [Alisertib]; details: max 10 µM
Summary of the method: as §1

AZD1775 = compound: C=CCn1c(=O)c2cnc(Nc3ccc(N4CCN(C)CC4)cc3)nc2n1-c1cccc(C(C)(C)O)n1 [AZD1775]; details: max 3 µM
Summary of the method: as §1

Olaparib = compound: O=C(c1cc(Cc2n[nH]c(=O)c3ccccc23)ccc1F)N1CCN(C(=O)C2CC2)CC1 [Olaparib]; details: max 10 µM
Summary of the method: as §1

MK-2206 = compound: NC1(c2ccc(-c3nc4ccn5c(=O)[nH]nc5c4cc3-c3ccccc3)cc2)CCC1 [MK-2206]; details: max 10 µM
Summary of the method: as §1

SG3199 = compound: CC1=CN2[C@@H](C1)C=NC3=CC(=C(C=C3C2=O)OC)OCCCCCOC4=C(C=C5C(=C4)N=C[C@@H]6CC(=CN6C5=O)C)OC [SG3199]; details: max 0.001 µM
Summary of the method: as §1

[1] = compound: O=C(Nc1ccc2[nH]nc(-c3ccncc3)c2c1)[C@@H]1CCN(CC(=O)N2CCN(c3ccc(-c4ncccn4)cc3)CC2)C1; details: max 5 µM
Summary of the method: as §1

Palbociclib = compound: CC(=O)c1c(C)c2cnc(Nc3ccc(N4CCNCC4)cn3)nc2n(C2CCCC2)c1=O [Palbociclib]; details: max 10 µM
Summary of the method: as §1

AZD0156 = compound: CN(C)CCCOc1ccc(-c2ccc3ncc4c(c3c2)n(C2CCOCC2)c(=O)n4C)cn1 [AZD0156]; details: max 3 µM
Summary of the method: as §1

Gefitinib = compound: COc1cc2ncnc(Nc3ccc(F)c(Cl)c3)c2cc1OCCCN1CCOCC1 [Gefitinib]; details: max 10 µM
Summary of the method: as §1

Etoposide = compound: COc1cc([C@@H]2c3cc4c(cc3[C@@H](O[C@@H]3O[C@@H]5CO[C@@H](C)O[C@H]5[C@H](O)[C@H]3O)[C@H]3COC(=O)[C@H]23)OCO4)cc(OC)c1O [Etoposide]; details: max 10 µM
Summary of the method: as §1

Paclitaxel = compound: CC(=O)O[C@H]1C(=O)[C@@]2(C)[C@H]([C@H](OC(=O)c3ccccc3)[C@]3(O)C[C@H](OC(=O)[C@H](O)[C@@H](NC(=O)c4ccccc4)c4ccccc4)C(C)=C1C3(C)C)[C@]1(OC(C)=O)CO[C@@H]1C[C@@H]2O [Paclitaxel]; details: max 3 µM
Summary of the method: as §1

AZD2811 = compound: CCN(CCO)CCCOc1ccc2c(Nc3cc(CC(=O)Nc4cccc(F)c4)[nH]n3)ncnc2c1 [AZD2811]; details: max 1 µM
Summary of the method: as §1

Trametinib = compound: CC(=O)Nc1cccc(-n2c(=O)n(C3CC3)c(=O)c3c(Nc4ccc(I)cc4F)n(C)c(=O)c(C)c32)c1 [Trametinib]; details: max 1 µM
Summary of the method: as §1

Savolitinib = compound: C[C@@H](c1ccc2nccn2c1)n1nnc2ncc(-c3cnn(C)c3)nc21 [Savolitinib]; details: max 1 µM
Summary of the method: as §1

AZD5153 = compound: COc1nnc2ccc(N3CCC(c4ccc(OCCN5CCN(C)C(=O)[C@H]5C)cc4)CC3)nn12 [AZD5153]; details: max 1 µM
Summary of the method: as §1

Doxorubicin = compound: COc1cccc2c1C(=O)c1c(O)c3c(c(O)c1C2=O)C[C@@](O)(C(=O)CO)C[C@@H]3O[C@H]1C[C@H](N)[C@H](O)[C@H](C)O1 [Doxorubicin]; details: max 1 µM
Summary of the method: as §1

AZD4320 = compound: CN(CC[C@H](CSC1=CC=CC=C1)NC2=C(C=C(C=C2)S(=O)(=O)NC(=O)C3=CC=C(C=C3)N4CCC(CC4)[C@H](C5=CC=CC=C5C6=CC=C(C=C6)Cl)O)S(=O)(=O)C(F)(F)F)CCO [AZD4320]; details: max 1 µM
Summary of the method: as §1

Carboplatin = compound: C1CC(C1)(C(=O)[O-])C(=O)[O-].N.N.[Pt+2] [Carboplatin]; details: max 10 µM
Summary of the method: as §1

AZD6738 = compound: C[C@@H]1COCCN1C2=NC(=NC(=C2)C3(CC3)[S@](=N)(=O)C)C4=C5C=CNC5=NC=C4 [AZD6738]; details: max 10 µM
Summary of the method: as §1

Lapatinib = compound: CS(=O)(=O)CCNCc1ccc(-c2ccc3ncnc(Nc4ccc(OCc5cccc(F)c5)c(Cl)c4)c3c2)o1 [Lapatinib]; details: max 10 µM
Summary of the method: as §1

Crizotinib = compound: C[C@@H](Oc1cc(-c2cnn(C3CCNCC3)c2)cnc1N)c1c(Cl)ccc(F)c1Cl [Crizotinib]; details: max 10 µM
Summary of the method: as §1

Venetoclax = compound: CC1(C)CCC(CN2CCN(c3ccc(C(=O)NS(=O)(=O)c4ccc(NCC5CCOCC5)c([N+](=O)[O-])c4)c(Oc4cnc5[nH]ccc5c4)c3)CC2)=C(c2ccc(Cl)cc2)C1 [Venetoclax]; details: max 1 µM
Summary of the method: as §1

Taselisib = compound: Cc1nc(-c2cn3c(n2)-c2ccc(-c4cnn(C(C)(C)C(N)=O)c4)cc2OCC3)n(C(C)C)n1 [Taselisib]; details: max 10 µM
Summary of the method: as §1

SRA737 = compound: N#Cc1cnc(Nc2cc(NC[C@H]3CNCCO3)c(C(F)(F)F)cn2)cn1 [SRA737]; details: max 10 µM
Summary of the method: as §1

Prexasertib = compound: COc1cccc(OCCCN)c1-c1cc(Nc2cnc(C#N)cn2)n[nH]1 [Prexasertib]; details: max 1 µM
Summary of the method: as §1

Selumetinib = compound: Cn1cnc2c(F)c(Nc3ccc(Br)cc3Cl)c(C(=O)NOCCO)cc21 [Selumetinib]; details: max 10 µM
Summary of the method: as §1

AZD7648 = compound: Cc1cc2ncnn2cc1Nc1ncc2c(n1)n(C1CCOCC1)c(=O)n2C [AZD7648]; details: max 10 µM
Summary of the method: as §1

Dasatinib = compound: CC1=C(C(=CC=C1)Cl)NC(=O)C2=CN=C(S2)NC3=CC(=NC(=N3)C)N4CCN(CC4)CCO [Dasatinib]; details: max 2 µM
Summary of the method: as §1

Cell Line | IC50, cell viability 72 h (AZD5991) [nM] | IC50, cell viability 72 h (AZD1390) [nM] | IC50, cell viability 72 h (Gemcitabine) [nM] | IC50, cell viability 72 h (AZD5363) [nM] | IC50, cell viability 72 h (SN-38) [nM] | IC50, cell viability 72 h (AZD8186) [nM] | IC50, cell viability 72 h (5-Fluorouracil) [nM] | IC50, cell viability 72 h (Alisertib) [nM] | IC50, cell viability 72 h (AZD1775) [nM] | IC50, cell viability 72 h (Olaparib) [nM] | IC50, cell viability 72 h (MK-2206) [nM] | IC50, cell viability 72 h (SG3199) [nM] | IC50, cell viability 72 h [1] [nM] | IC50, cell viability 72 h (Palbociclib) [nM] | IC50, cell viability 72 h (AZD0156) [nM] | IC50, cell viability 72 h (Gefitinib) [nM] | IC50, cell viability 72 h (Etoposide) [nM] | IC50, cell viability 72 h (Paclitaxel) [nM] | IC50, cell viability 72 h (AZD2811) [nM] | IC50, cell viability 72 h (Trametinib) [nM] | IC50, cell viability 72 h (Savolitinib) [nM] | IC50, cell viability 72 h (AZD5153) [nM] | IC50, cell viability 72 h (Doxorubicin) [nM] | IC50, cell viability 72 h (AZD4320) [nM] | IC50, cell viability 72 h (Carboplatin) [nM] | IC50, cell viability 72 h (AZD6738) [nM] | IC50, cell viability 72 h (Lapatinib) [nM] | IC50, cell viability 72 h (Crizotinib) [nM] | IC50, cell viability 72 h (Venetoclax) [nM] | IC50, cell viability 72 h (Taselisib) [nM] | IC50, cell viability 72 h (SRA737) [nM] | IC50, cell viability 72 h (Prexasertib) [nM] | IC50, cell viability 72 h (Selumetinib) [nM] | IC50, cell viability 72 h (AZD7648) [nM] | IC50, cell viability 72 h (Dasatinib) [nM]
UM-UC-3 (Bladder Carcinoma) | > 1000 | > 300 | 58.2 | > 10000 | 15.3 | > 10000 | > 20000 | > 10000 | > 3000 | > 10000 | > 10000 | > 1 | > 5000 | > 10000 | > 3000 | > 10000 | 3450 | 66 | > 1000 | > 1000 | > 1000 | > 1000 | > 1000 | > 1000 | > 10000 | > 10000 | > 10000 | > 10000 | > 1000 | 8320 | > 10000 | 799 | > 10000 | > 10000 | > 2000
ME-1 (Acute Myeloid Leukemia) | 694 | > 300 | > 300 | > 10000 | > 300 | > 10000 | > 20000 | > 10000 | 1260 | > 10000 | > 10000 | > 1 | > 5000 | > 10000 | > 3000 | > 10000 | > 10000 | > 3000 | > 1000 | > 1000 | > 1000 | > 1000 | > 1000 | 22.7 | > 10000 | > 10000 | > 10000 | > 10000 | 7.88 | > 10000 | > 10000 | 315 | > 10000 | > 10000 | > 2000
HO-1-N-1 (Oral Cavity Carcinoma) | 788 | > 300 | 6.22 | > 10000 | 4.4 | > 10000 | 17600 | 68.7 | 1520 | > 10000 | > 10000 | > 1 | 2260 | > 10000 | > 3000 | 8370 | 1260 | < 3 | 409 | 417 | > 1000 | 202 | 84.2 | > 1000 | > 10000 | 5590 | 7300 | 5580 | > 1000 | 1960 | > 10000 | 60.1 | > 10000 | > 10000 | 581
NCI-H2085 (Non-Small Cell Lung Carcinoma) | > 1000 | > 300 | > 300 | > 10000 | > 300 | 3580 | > 20000 | 8070 | 3000 | > 10000 | > 10000 | > 1 | > 5000 | > 10000 | > 3000 | > 10000 | > 10000 | 382 | > 1000 | > 1000 | > 1000 | > 1000 | > 1000 | > 1000 | > 10000 | > 10000 | > 10000 | > 10000 | > 1000 | > 10000 | > 10000 | 67.3 | > 10000 | > 10000 | 152
NB10 (Neuroblastoma) | > 1000 | > 300 | 87.1 | > 10000 | 6.51 | > 10000 | 18400 | 56.6 | 892 | > 10000 | > 10000 | > 1 | 3880 | > 10000 | > 3000 | > 10000 | 1950 | 273 | > 1000 | 328 | > 1000 | 664 | 528 | > 1000 | > 10000 | 5830 | > 10000 | 3740 | > 1000 | 6730 | > 10000 | 92 | > 10000 | > 10000 | > 2000
